Test results: patent US20250241892A1, “5-METHOXY-N,N-[…][…] THE TREATMENT OF PSYCHOMOTOR RETARDATION” (GH RESEARCH IRELAND LIMITED, priority 2022, published 2025)

Test system: patients with postpartum depression (PPD)
Test: Clinical trial of inhaled 5-MeO-DMT in postpartum depression
Conditions: 1 patient
Protocol: The single-arm, open-label clinical trial will involve 15 adult female patients with clinically diagnosed postpartum depression (PPD).
The second dose (12 mg) will only be administered if: • a. A peak experience (total score of ⋅75) has not been achieved following the 6 mg dose, and • b. The 6 mg dose was safe and well-tolerated according to the investigator, • c. Any psychoactive effects (PsE) of the prior dose have subsided, and • d. Pre-dose vital parameters and forced expiratory volume in one second (FEV1) are in normal range, or if outside of the normal range, are not clinically significant according to the investigator. • 3. Similarly, a third dose (18 mg) will only be administered if: • a. A peak experience (total score of ⋅75) has not been achieved following the 12 mg dose, and • b. The 12 mg dose was safe and well-tolerated according to the investigator, and • c. Any PsE of the prior dose have subsided, and • d. Pre-dose vital parameters and forced expiratory volume in one second (FEV1) are in normal range, or if outside of the normal range, are not clinically significant according to the investigator.
The patients will be assessed for a peak psychedelic experience (based on a patient-scored visual analogue scale, the PE scale), sedation, and other endpoints after dosing. Follow-up visits are planned for Day 1, and Day 7 after the dosing day.
The following criteria must be met by all patients considered for clinical trial participation: • 1. Is female and in the age range between 18 and 45 years (inclusive) at screening. • 2. Has a body mass index (BMI) in the range of 18.5 and 35 kg/m^2 (inclusive) at screening. • 3. Meets the trial criteria for PPD as assessed by a trial psychiatrist or registered psychologist: • a. Diagnosis of Major Depressive Disorder without psychotic features, confirmed by the Mini-International Neuropsychiatric Interview (MINI), with peri-partum onset that began no earlier than gestation and no later than the first 4 weeks postpartum. • b. Has a Montgomery-Åsberg Depression Rating Scale (MADRS) total score of equal to or greater than 28 at screening and pre-dose on Day 0. • 6. […] Patients must have a negative pregnancy test at screening and on the pre-test day (Day −1). • 5. Is willing to delay start of other antidepressant or anxiety medication until after the end of the trial at Day 7 and agrees to keep any psychotherapy unchanged during the trial.
A potential patient who meets any of the following key exclusion criteria will be excluded from participation in this trial: • 1. Has, based on history, psychiatric assessment, and evaluation of the MINI, a current or prior diagnosis of bipolar disorder, a manic or hypomanic episode, a psychotic disorder, Major Depressive Disorder (MDD) or other mood disorder with psychotic features, obsessive compulsive disorder, post-traumatic stress disorder (PTSD), autism spectrum disorder, borderline personality disorder, schizophrenia, delusional disorder, paranoid personality disorder, schizoaffective disorder, clinically significant intellectual disability, or any other psychiatric comorbidity that renders the patient unsuitable for the trial according to the investigator's judgment. • 2. Has one or more first or second degree relatives with a current or previously diagnosed bipolar disorder, psychotic disorder or other mood disorder (including MDD) with psychotic features. • 3. Is in the judgement of a trial psychiatrist or registered psychologist, at significant risk for suicide based on history, psychiatric assessment, and evaluation of suicidal ideation and suicidal behaviour based on the Columbia-Suicide Severity Rating Scale (C-SSRS). • 4. Has taken anti-depressive medication within 14 days or 5 half-lives (whichever is longer) prior to dosing (exception: within the last 5 weeks in the case of fluoxetine). • 5.

COc1ccc2[nH]cc(CCN(C)C)c2c1 [5-MeO-DMT]
BPRS Mannerisms and Posturing score (Day 7, baseline 1): 1
BPRS Motor retardation score (Day 7, baseline 1): 1
BPRS Suspiciousness score (Day 7, baseline 1): 1
BPRS Uncooperativeness score (Day 7, baseline 1): 1
BPRS Unusual Thought Content score (Day 7, baseline 1): 1
BPRS Excitement score (Day 7, baseline 2): 1
MADRS Inability to Feel score (Day 7, baseline 3): 0
MADRS Lassitude score (Day 7, baseline 3): 0
MADRS Pessimistic Thoughts score (Day 7, baseline 4): 0
MADRS Reported sadness score (Day 7, baseline 4): 0
BPRS Emotional withdrawal score (Day 7, baseline 5): 1
MADRS Apparent sadness score (Day 7, baseline 5): 0
MADRS Inner Tension score (Day 7, baseline 5): 1
MADRS Reduced Sleep score (Day 7, baseline 5): 0
BPRS Depressive Mood score (Day 7, baseline 6): 1
BPRS Guilt feelings score (Day 7, baseline 6): 1
BPRS Somatic Concern score (Day 7, baseline 6): 1
BPRS Tension score (Day 7, baseline 6): 1
BPRS Anxiety score (Day 7, baseline 7): 1
BIMF functional domain Adjustment Δ (Day 7) (Day 7 vs Day 0): 1
BIMF functional domain Infant Care Δ (Day 7) (Day 7 vs Day 0): 0
BIMF functional domain Management Δ (Day 7) (Day 7 vs Day 0): 5
BIMF functional domain Mother-Child Interaction Δ (Day 7) (Day 7 vs Day 0): 2
BIMF functional domain Psychological Well-being Δ (Day 7) (Day 7 vs Day 0): 9
BIMF functional domain Self Care Δ (Day 7) (Day 7 vs Day 0): 4
BIMF functional domain Social Support Δ (Day 7) (Day 7 vs Day 0): 1
BIMF item 1 (I am a good mother) Δ (Day 7) (Day 7 vs Day 0): 0
BIMF item 2 (I feel rested) Δ (Day 7) (Day 7 vs Day 0): 2
BIMF item 3 (comfortable with the way I've chosen to feed my baby) Δ (Day 7) (Day 7 vs Day 0): 0
BIMF item 4 (My baby and I understand each other) Δ (Day 7) (Day 7 vs Day 0): 0
BIMF item 5 (able to relax and enjoy time with my baby) Δ (Day 7) (Day 7 vs Day 0): 1
BIMF item 6 (people in my life that I can trust to care for my baby) Δ (Day 7) (Day 7 vs Day 0): 0
BIMF item 8 (getting enough adult interaction) Δ (Day 7) (Day 7 vs Day 0): 0
BIMF item 9 (getting enough encouragement from other people) Δ (Day 7) (Day 7 vs Day 0): 1
BIMF item 10 (I trust my own feelings (instincts)) Δ (Day 7) (Day 7 vs Day 0): 1
BIMF item 11 (a little time each week to do something for myself) Δ (Day 7) (Day 7 vs Day 0): 1
BIMF item 12 (taking good care of my baby's physical needs) Δ (Day 7) (Day 7 vs Day 0): 0
BIMF item 13 (taking good care of my physical needs) Δ (Day 7) (Day 7 vs Day 0): 1
BIMF item 14 (good decisions about my baby's health and well being) Δ (Day 7) (Day 7 vs Day 0): 0
BIMF item 15 (My baby and I are getting into a routine) Δ (Day 7) (Day 7 vs Day 0): 1
BIMF item 16 (I worry about how other people judge me) Δ (Day 7) (Day 7 vs Day 0): 2
BIMF item 17 (able to take care of my baby and my other responsibilities) Δ (Day 7) (Day 7 vs Day 0): 0
BIMF item 18 (Anxiety or worry often interferes with my mothering ability) Δ (Day 7) (Day 7 vs Day 0): 3
BIMF item 19 (getting better at taking care of my baby) Δ (Day 7) (Day 7 vs Day 0): 1
BIMF item 20 (satisfied with the job I am doing as a new mother) Δ (Day 7) (Day 7 vs Day 0): −1
BPRS Anxiety improvement (Day 7 vs baseline): 6
BPRS Blunted affect improvement (Day 7 vs baseline): 0
BPRS Conceptual disorganization improvement (Day 7 vs baseline): 0
BPRS Depressive Mood improvement (Day 7 vs baseline): 5
BPRS Disorientation improvement (Day 7 vs baseline): 0
BPRS Emotional withdrawal improvement (Day 7 vs baseline): 4
BPRS Excitement improvement (Day 7 vs baseline): 1
BPRS Grandiosity improvement (Day 7 vs baseline): 0
BPRS Guilt feelings improvement (Day 7 vs baseline): 5
BPRS Hallucinatory behaviour improvement (Day 7 vs baseline): 0
BPRS Hostility improvement (Day 7 vs baseline): 0
BPRS Mannerisms and Posturing improvement (Day 7 vs baseline): 0
BPRS Motor retardation improvement (Day 7 vs baseline): 0
BPRS Somatic Concern improvement (Day 7 vs baseline): 5
BPRS Suspiciousness improvement (Day 7 vs baseline): 0
BPRS Tension improvement (Day 7 vs baseline): 5
BPRS Uncooperativeness improvement (Day 7 vs baseline): 0
BPRS Unusual Thought Content improvement (Day 7 vs baseline): 0
MADRS Apparent sadness improvement (Day 7 vs baseline): 5
MADRS Concentration Difficulties improvement (Day 7 vs baseline): 0
MADRS Inability to Feel improvement (Day 7 vs baseline): 3
MADRS Inner Tension improvement (Day 7 vs baseline): 4
MADRS Lassitude improvement (Day 7 vs baseline): 3
MADRS Pessimistic Thoughts improvement (Day 7 vs baseline): 4
MADRS Reduced Sleep improvement (Day 7 vs baseline): 5
MADRS Reduced appetite improvement (Day 7 vs baseline): 0
MADRS Reported sadness improvement (Day 7 vs baseline): 4
MADRS Suicidal Thoughts improvement (Day 7 vs baseline): 0
BPRS Anxiety improvement (Discharge vs baseline): 6
BPRS Blunted affect improvement (Discharge vs baseline): 0
BPRS Conceptual disorganization improvement (Discharge vs baseline): 0
BPRS Depressive Mood improvement (Discharge vs baseline): 5
BPRS Disorientation improvement (Discharge vs baseline): 0
BPRS Emotional withdrawal improvement (Discharge vs baseline): 4
BPRS Excitement improvement (Discharge vs baseline): 1
BPRS Grandiosity improvement (Discharge vs baseline): 0
BPRS Guilt feelings improvement (Discharge vs baseline): 5
BPRS Hallucinatory behaviour improvement (Discharge vs baseline): 0
BPRS Hostility improvement (Discharge vs baseline): 0
BPRS Mannerisms and Posturing improvement (Discharge vs baseline): 0
BPRS Motor retardation improvement (Discharge vs baseline): 0
BPRS Somatic Concern improvement (Discharge vs baseline): 5
BPRS Suspiciousness improvement (Discharge vs baseline): 0
BPRS Uncooperativeness improvement (Discharge vs baseline): 0
BPRS Unusual Thought Content improvement (Discharge vs baseline): 0
BPRS Blunted affect score (Discharge, baseline 1): 1
BPRS Conceptual disorganization score (Discharge, baseline 1): 1
BPRS Disorientation score (Discharge, baseline 1): 1
BPRS Grandiosity score (Discharge, baseline 1): 1
BPRS Hallucinatory behaviour score (Discharge, baseline 1): 1
BPRS Hostility score (Discharge, baseline 1): 1
BPRS Mannerisms and Posturing score (Discharge, baseline 1): 1
BPRS Motor retardation score (Discharge, baseline 1): 1
BPRS Suspiciousness score (Discharge, baseline 1): 1
BPRS Uncooperativeness score (Discharge, baseline 1): 1
BPRS Unusual Thought Content score (Discharge, baseline 1): 1
BPRS Excitement score (Discharge, baseline 2): 1
BPRS Emotional withdrawal score (Discharge, baseline 5): 1
BPRS Depressive Mood score (Discharge, baseline 6): 1
BPRS Guilt feelings score (Discharge, baseline 6): 1
BPRS Somatic Concern score (Discharge, baseline 6): 1
BPRS Tension score (Discharge, baseline 6): 1
BPRS Anxiety score (Discharge, baseline 7): 1
Changes in vital parameters (shortly after administration): temporary, clinically non-relevant increase in heart rate and blood pressure
